According to patent publication US11179391B2, “Compound with kinase inhibitory activity and preparation method and use thereof” (priority 2017, dated 2021):
Counter-ions that a name gives are not always drawn. Like-named read-outs stand apart in the source and are kept apart here.

Tests used:
Type in all cases: biochemical
CDK7/CyclinH/MAT1 = CDK7/CyclinH/MAT1 (Homo sapiens, UniProt P50613); test: Determination of CDK activity (Caliper mobility shift, FAM-P8 peptide): CDK7; conditions: read-out: CDK7 enzymatic inhibitory activity (IC50)
Chain of CDK7/CyclinH/MAT1 (P50613 whole entry): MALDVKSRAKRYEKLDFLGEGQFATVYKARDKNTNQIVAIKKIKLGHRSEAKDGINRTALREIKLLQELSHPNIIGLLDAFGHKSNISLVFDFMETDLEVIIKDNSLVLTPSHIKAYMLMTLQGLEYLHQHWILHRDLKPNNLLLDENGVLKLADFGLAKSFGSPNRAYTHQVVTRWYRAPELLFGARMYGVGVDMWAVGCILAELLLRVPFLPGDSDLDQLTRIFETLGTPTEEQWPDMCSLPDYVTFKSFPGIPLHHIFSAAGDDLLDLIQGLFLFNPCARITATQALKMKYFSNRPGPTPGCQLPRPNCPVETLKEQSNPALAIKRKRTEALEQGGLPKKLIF
Chain of CDK7/CyclinH/MAT1 (P51946 whole entry partner): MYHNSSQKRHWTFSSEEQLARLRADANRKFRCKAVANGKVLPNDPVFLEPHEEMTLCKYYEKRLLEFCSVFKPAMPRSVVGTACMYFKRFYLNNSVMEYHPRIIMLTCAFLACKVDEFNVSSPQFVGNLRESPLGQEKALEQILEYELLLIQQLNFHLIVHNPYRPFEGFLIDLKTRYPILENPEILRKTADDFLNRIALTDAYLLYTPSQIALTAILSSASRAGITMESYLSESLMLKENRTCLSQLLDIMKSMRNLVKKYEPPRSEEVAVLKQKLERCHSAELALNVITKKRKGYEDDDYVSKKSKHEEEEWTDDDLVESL
Chain of CDK7/CyclinH/MAT1 (P51948 whole entry partner): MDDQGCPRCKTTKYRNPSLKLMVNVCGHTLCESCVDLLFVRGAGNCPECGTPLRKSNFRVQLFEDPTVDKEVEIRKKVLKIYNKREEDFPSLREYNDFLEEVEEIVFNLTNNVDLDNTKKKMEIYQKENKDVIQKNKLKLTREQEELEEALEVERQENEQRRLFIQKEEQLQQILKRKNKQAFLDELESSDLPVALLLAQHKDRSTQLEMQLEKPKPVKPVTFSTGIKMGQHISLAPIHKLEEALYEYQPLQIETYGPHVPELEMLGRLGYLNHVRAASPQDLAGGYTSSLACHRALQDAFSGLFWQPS
Experimental: (§1) In vitro, CDK (CDK4, CDK6, CDK1, CDK2, CDK7, and CDK9) kinase activity was tested by the following method.
(§2) CDK and raw materials used here: CDK4/CycD3 (Carna, Cat. No 04-105, Lot. No 10CBS-0429 C, GST-CDK4(1-303end)/GST-CycD3(1-292end)); CDK6/cycD3 (Carna, Cat. No 04-107, Lot. No 09CBS-0622K, GST-CDK6(1-326(end))); CDK1/CyclinB (Millipore, Cat. 14-450k, Lot. No 25729U, His-CDK1+GST-cyclinB); CDK2/CycA2 (Carna, Cat. No 04-103, Lot. No 06CBS-3024, GST-CDK2 (1-298(end))); CDK7/CyclinH/MAT1 (Millipore, Cat. No 14-476M, Lot. No WAB0365-A, His-CDK7+GST-MAT1+cyclinH); CDK9/cyclinTl (Millipore, Cat. No 14-685K, Lot. No. 2476163-A, His-CDK9+cyclinTl); Peptide FAM-P8 (GL Biochem, Cat. No. 112396, Lot. No. P100804-XZ112396); ATP (Sigma, Cat. No. A7699-1G, CAS No. 987-65-5); DMSO (Sigma, Cat. No. D2650, Lot. No. 474382); EDTA (Sigma, Cat. No. E5134, CAS No. 60-00-4); 96-well plate (Corning, Cat. No. 3365, Lot. No. 22008026); 384-well plate (Corning, Cat. No. 3573, Lot. No. 12608008); Staurosporine (Sigma, Cat. No. S4400-1MG, Lot. No. 046K4080).
(§3) 1. Prepared 1× Kinase Buffer and Stop Buffer for the Test
(§4) 3) 1× Kinase Base Buffer (CDK7 and 9).
(§5) 1) Diluted the compound to 50 times of the maximum concentration with 100% DMSO. For example, if the desired maximum inhibitory concentration is 10 μM, then a DMSO solution of 500 μM concentration is required.
(§6) 2) Transferred the compound to a 96-well plate and serially diluted the compound from a 100% DMSO solution at a ratio of 30 μm to 60 μm for a total of 10 concentrations gradients. 3) Transferred 100 μm of 100% DMSO to two empty wells as a no compound control and a no enzyme control.
(§7) 4) Prepared intermediate plate and transferred the compound of 10 μm concentration from the original plate to the intermediate plate, and then 90 μm of 1× kinase buffer was added and mixed by shaking for 10 min.
(§8) 4) Preparing intermediate plate and transferred the compound of […] concentration from the original plate to the intermediate plate, and then 90 μm of 1× kinase buffer was added and mixed by shaking for 10 min.
(§9) 1) Transferred 5 μm of each compound from the 96-well intermediate plate to a 384-well plate. For example, A1 of the 96-well plate was transferred to A1 and A2 of the 384-well plate. A2 of the 96-well plate was transferred to A3 and A4 of the 384-well plate, and so on.
(§10) 1) Prepared a 2.5× enzyme solution: added kinase into 1× kinase base buffer.
(§11) 2) Prepared a 2.5× peptide solution: added FAM-labeled peptide and ATP into the 1× kinase base buffer.
(§12) 3) Transferred the 2.5× enzyme solution to the assay plate: Assay plate already contained 5 μm of 10% DMSO and transferred 10 μm of 2.5× enzyme solution to each well.
(§13) 4) Incubated at room temperature for 10 min.
(§14) 5) Transferred the 2.5× peptide solution to the assay plate: added 10 μm of 2.5× peptide solution to each well of the 384-well assay plate.
(§15) 6) Kinase reaction and termination: incubated at 28° C. for a specified period and added 25 μm of stop buffer to stop the reaction.
(§16) 5. Caliper Reading: Collect Data on Caliper.
(§17) 1) Copied conversion data from Caliper program and Converted conversion values to inhibition values: Inhibition rate (%)=(1−OD value of the compound-OD value of the control well)/(OD value of the control empty-OD value of the control well)*100%.
(§18) 2) Fitted the data in XLFit excel add-in version 4.3.1 to give the corresponding IC50 values.

CDK4/CycD3 = CDK4/CycD3 (Homo sapiens, UniProt P11802); test: Determination of CDK activity (Caliper mobility shift, FAM-P8 peptide): CDK4; conditions: read-out: CDK4 enzymatic inhibitory activity (IC50)
Chain of CDK4/CycD3 (P11802 whole entry): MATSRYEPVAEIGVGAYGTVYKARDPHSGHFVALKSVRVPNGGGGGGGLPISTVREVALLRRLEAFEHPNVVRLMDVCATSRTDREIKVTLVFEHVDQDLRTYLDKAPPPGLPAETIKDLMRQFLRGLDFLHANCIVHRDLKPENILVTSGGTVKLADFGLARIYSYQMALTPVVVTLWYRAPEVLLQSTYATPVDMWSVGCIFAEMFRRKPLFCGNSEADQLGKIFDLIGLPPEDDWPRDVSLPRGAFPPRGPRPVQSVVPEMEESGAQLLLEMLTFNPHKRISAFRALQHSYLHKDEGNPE
Chain of CDK4/CycD3 (P30281 whole entry partner): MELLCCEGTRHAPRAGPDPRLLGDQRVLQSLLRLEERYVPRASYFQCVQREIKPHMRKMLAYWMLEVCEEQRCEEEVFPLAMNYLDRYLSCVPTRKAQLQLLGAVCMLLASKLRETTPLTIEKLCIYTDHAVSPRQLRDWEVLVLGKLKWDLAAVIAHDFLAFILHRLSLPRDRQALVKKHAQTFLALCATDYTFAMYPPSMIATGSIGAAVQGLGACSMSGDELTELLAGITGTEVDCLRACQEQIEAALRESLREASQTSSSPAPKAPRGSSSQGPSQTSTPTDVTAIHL
Experimental: as §1, §2, §3
2) 1× Kinase Base Buffer (CDK4).
as §5, §6, §7, §8, §9, §10, §11, §12, §13, §14, §15, §16, §17, §18

CDK1/CyclinB = CDK1/CyclinB (Homo sapiens, UniProt P06493); test: Determination of CDK activity (Caliper mobility shift, FAM-P8 peptide): CDK1; conditions: read-out: CDK1 enzymatic inhibitory activity (IC50)
Chain of CDK1/CyclinB (P06493 whole entry): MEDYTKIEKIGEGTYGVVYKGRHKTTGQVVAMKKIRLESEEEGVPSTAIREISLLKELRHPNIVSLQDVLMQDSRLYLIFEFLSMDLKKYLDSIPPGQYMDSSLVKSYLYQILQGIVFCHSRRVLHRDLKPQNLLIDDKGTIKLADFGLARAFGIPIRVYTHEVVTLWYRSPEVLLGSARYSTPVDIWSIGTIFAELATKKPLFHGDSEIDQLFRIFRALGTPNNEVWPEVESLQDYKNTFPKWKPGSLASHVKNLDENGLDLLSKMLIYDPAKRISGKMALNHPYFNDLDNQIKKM
Chain of CDK1/CyclinB (P14635 whole entry partner): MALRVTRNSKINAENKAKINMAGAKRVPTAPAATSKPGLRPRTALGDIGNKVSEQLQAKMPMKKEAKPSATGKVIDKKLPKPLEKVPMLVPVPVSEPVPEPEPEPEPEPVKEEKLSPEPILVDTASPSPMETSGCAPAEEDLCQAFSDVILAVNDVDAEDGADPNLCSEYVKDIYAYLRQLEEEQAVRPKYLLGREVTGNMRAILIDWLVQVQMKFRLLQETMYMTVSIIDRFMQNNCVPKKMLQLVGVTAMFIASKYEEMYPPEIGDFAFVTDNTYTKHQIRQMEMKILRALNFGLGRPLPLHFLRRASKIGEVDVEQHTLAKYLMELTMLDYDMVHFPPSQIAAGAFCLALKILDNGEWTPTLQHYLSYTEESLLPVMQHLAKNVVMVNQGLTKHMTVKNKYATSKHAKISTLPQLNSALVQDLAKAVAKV
Experimental: as §1, §3
(§19) 1) 1× Kinase Base Buffer (CDK1, 2, and 6).
as §5, §6
(§20) 1) Transferred 5 μm of each compound from the 96-well intermediate plate to a 384-well plate. […] A2 of the 96-well plate was transferred to A3 and A4 of the 384-well plate, and so on.
as §10, §11, §12, §13, §14, §15, §16, §17, §18

CDK9/cyclinTl = CDK9/cyclinTl (Homo sapiens, UniProt P50750); test: Determination of CDK activity (Caliper mobility shift, FAM-P8 peptide): CDK9
Chain of CDK9/cyclinTl (P50750 whole entry): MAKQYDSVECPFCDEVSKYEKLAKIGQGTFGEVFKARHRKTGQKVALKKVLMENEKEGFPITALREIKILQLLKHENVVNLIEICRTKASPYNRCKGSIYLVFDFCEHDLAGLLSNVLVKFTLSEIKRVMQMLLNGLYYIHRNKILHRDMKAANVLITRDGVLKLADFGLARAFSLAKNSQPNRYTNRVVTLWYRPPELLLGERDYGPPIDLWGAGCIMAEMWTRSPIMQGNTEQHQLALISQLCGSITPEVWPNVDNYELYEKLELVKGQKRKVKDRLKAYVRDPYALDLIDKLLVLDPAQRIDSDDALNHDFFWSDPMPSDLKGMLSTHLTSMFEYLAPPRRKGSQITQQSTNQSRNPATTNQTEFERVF
Chain of CDK9/cyclinTl (O60563 whole entry partner): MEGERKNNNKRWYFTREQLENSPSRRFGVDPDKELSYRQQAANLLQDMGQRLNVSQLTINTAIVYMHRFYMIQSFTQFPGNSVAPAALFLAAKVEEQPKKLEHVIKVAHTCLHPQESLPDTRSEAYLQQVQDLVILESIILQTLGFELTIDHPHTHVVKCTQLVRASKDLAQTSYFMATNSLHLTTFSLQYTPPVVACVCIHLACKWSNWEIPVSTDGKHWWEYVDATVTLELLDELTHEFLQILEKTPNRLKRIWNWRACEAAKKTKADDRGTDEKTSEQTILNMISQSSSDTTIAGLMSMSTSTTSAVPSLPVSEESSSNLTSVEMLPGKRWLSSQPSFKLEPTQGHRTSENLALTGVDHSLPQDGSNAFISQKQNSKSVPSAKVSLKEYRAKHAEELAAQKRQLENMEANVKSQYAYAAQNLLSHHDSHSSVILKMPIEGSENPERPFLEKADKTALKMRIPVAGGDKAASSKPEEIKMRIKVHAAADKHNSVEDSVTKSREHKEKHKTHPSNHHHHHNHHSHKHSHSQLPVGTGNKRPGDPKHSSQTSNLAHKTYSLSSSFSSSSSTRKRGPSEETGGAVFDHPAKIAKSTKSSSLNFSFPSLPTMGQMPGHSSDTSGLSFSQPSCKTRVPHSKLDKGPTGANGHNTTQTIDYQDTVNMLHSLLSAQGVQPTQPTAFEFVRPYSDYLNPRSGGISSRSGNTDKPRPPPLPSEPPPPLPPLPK
Experimental: as §1, §3, §4, §5, §6, §20, §10, §11, §12, §13, §14, §15, §16, §17, §18

CDK6/cycD3 = CDK6/cycD3 (Homo sapiens, UniProt Q00534); test: Determination of CDK activity (Caliper mobility shift, FAM-P8 peptide): CDK6; conditions: read-out: CDK6 enzymatic inhibitory activity (IC50)
Chain of CDK6/cycD3 (Q00534 whole entry): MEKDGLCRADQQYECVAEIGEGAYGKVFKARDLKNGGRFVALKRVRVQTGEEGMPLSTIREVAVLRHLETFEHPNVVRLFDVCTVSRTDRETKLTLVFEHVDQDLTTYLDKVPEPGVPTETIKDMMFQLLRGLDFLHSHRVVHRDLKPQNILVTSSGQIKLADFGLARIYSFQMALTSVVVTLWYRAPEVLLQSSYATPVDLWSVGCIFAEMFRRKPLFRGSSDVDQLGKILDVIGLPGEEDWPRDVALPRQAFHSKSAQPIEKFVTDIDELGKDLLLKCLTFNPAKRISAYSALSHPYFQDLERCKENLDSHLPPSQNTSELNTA
Chain of CDK6/cycD3 (P30281 whole entry partner): as the sequence (P30281 whole entry partner) above
Experimental: as §1, §2, §3, §19, §5, §6, §7, §8, §9, §10, §11, §12, §13, §14, §15, §16, §17, §18

CDK2/CycA2 = CDK2/CycA2 (Homo sapiens, UniProt P24941); test: Determination of CDK activity (Caliper mobility shift, FAM-P8 peptide): CDK2; conditions: read-out: CDK2 enzymatic inhibitory activity (IC50)
Experimental: as §1, §3, §19, §5, §6, §20, §10, §11, §12, §13, §14, §15, §16, §17, §18

[1] = CDK9/cyclinTl, read-out: CDK9 enzymatic inhibitory activity (IC50)

SMILES	IC50 (CDK7/CyclinH/MAT1; CDK7/CyclinH/MAT1) [nM]	IC50 (CDK4/CycD3; CDK4/CycD3) [nM]	IC50 (CDK1/CyclinB; CDK1/CyclinB) [nM]	IC50 (CDK9/cyclinTl; [1]) [nM]	IC50 (CDK6/cycD3; CDK6/cycD3) [nM]	IC50 (CDK2/CycA2; CDK2/CycA2) [nM]	IC50 (CDK9/cyclinTl; CDK9 enzymatic inhibitory activity (IC50), CDK9/cyclinTl) [nM]	IC50 (CDK7/CyclinH/MAT1) [nM]	IC50 (CDK4/CycD3) [nM]	IC50 (CDK1/CyclinB) [nM]	IC50 (CDK9/cyclinTl; read-out: CDK9 enzymatic inhibitory activity (IC50)) [nM]	IC50 (CDK6/cycD3) [nM]	IC50 (CDK2/CycA2) [nM]
COCCN1CCC(=Cc2ccc(Nc3ncc(F)c(-c4cc(F)c5nc(C)n(C(C)C)c5c4)n3)nc2)CC1 [Example 68]	1000 to 10000	< 100	100 to 500	100 to 500	< 100	< 100	–	–	–	–	–	–	–
CCN1CCC(C(OC(C)=O)c2ccc(Nc3ncc(F)c(-c4cc(F)c5nc(C)n(C(C)C)c5c4)n3)nc2)CC1 (single isomer, unassigned) [Example 71, (R or S)-(1-ethylpiperidin-4-yl) (6-((5-fluoro-4-(4-fluoro-1-isopropyl-2-methyl-1H-benzo[d]imidazol-6-yl)pyrimidin-2-yl)amino)pyridin-3-yl) methyl acetate]	1000 to 10000	< 100	100 to 500	100 to 500	< 100	< 100	–	–	–	–	–	–	–
Cc1nc2c(F)cc(-c3nc(Nc4ccc([C@H](C)C5CCN(C6CC6)CC5)cn4)ncc3F)cc2n1C(C)C [Example 75]	1000 to 10000	< 100	100 to 500	100 to 500	< 100	< 100	–	–	–	–	–	–	–
CC[C@H](c1ccc(Nc2ncc(F)c(-c3cc(F)c4nc(C)n(C(C)C)c4c3)n2)nc1)N1CCNCC1 [Example 5]	1000 to 10000	< 100	10000 to 100000	10000 to 100000	1000 to 10000	10000 to 100000	–	–	–	–	–	–	–
COCCN1CCC([C@H](C)c2ccc(Nc3ncc(F)c(-c4cc(F)c5nc(C)n(C(C)C)c5c4)n3)nc2)CC1 (single isomer, unassigned) [Example 80]	1000 to 10000	< 100	500 to 1000	100 to 500	100 to 500	100 to 500	–	–	–	–	–	–	–
Cc1nc2c(F)cc(-c3nc(Nc4ccc(C=C5CCN(C6CC6)CC5)cn4)ncc3F)cc2n1C(C)C [Example 66]	1000 to 10000	< 100	100 to 500	100 to 500	< 100	< 100	–	–	–	–	–	–	–
Cc1nc2c(F)cc(-c3nc(Nc4ccc(C=C5CCN(C(C)C)CC5)cn4)ncc3F)cc2n1C(C)C [Example 64]	10000 to 100000	< 100	1000 to 10000	100 to 500	100 to 500	100 to 500	–	–	–	–	–	–	–
CCN1CCC(C(C)c2ccc(Nc3ncc(F)c(-c4cc(F)c5nc(C)n(C(C)C)c5c4)n3)nc2)CC1 (single isomer, unassigned) [Example 18, (R or S)—N-(5-(1-(1-ethylpiperidin-4-yl)ethyl)pyridin-2-yl)-5-fluoro-4-(4-fluoro-1-isopropyl-2-methyl-1H-benzo[d]imidazol-6-yl) pyrimidin-2-amine]	1000 to 10000	< 100	500 to 1000	500 to 1000	100 to 500	100 to 500	–	–	–	–	–	–	–
CCN1CCC([C@@H](OC)c2ccc(Nc3ncc(F)c(-c4cc(F)c5nc(C)n(C(C)C)c5c4)n3)nc2)CC1 [Example 45]	1000 to 10000	< 100	100 to 500	100 to 500	100 to 500	< 100	–	–	–	–	–	–	–
CCC(c1ccc(Nc2ncc(F)c(-c3cc(F)c4nc(C)n(C(C)C)c4c3)n2)nc1)N1CCN(CC)CC1 (racemic) [Example 1, N-(5-(1-(4-ethylpiperazin-1-yl)propyl)pyridin-2-yl)-5-fluoro-4-(4-fluoro-1-isopropyl-2-methyl-1H-benzo[d]imidazol-6-yl)pyrimidin-2-amine]	1000 to 10000	< 100	10000 to 100000	1000 to 10000	1000 to 10000	1000 to 10000	–	–	–	–	–	–	–
Cc1nc2c(F)cc(-c3nc(Nc4ccc(C=C5CCNCC5)cn4)ncc3F)cc2n1C(C)C [Example 59]	1000 to 10000	< 100	500 to 1000	100 to 500	500 to 1000	100 to 500	–	–	–	–	–	–	–
CC[C@H](c1ccc(Nc2ncc(F)c(-c3cc(F)c4nc(C)n(C(C)C)c4c3)n2)nc1)N1CCN(C)CC1 [Example 7]	1000 to 10000	< 100	10000 to 100000	–	1000 to 10000	10000 to 100000	10000 to 100000	–	–	–	–	–	–
Cc1nc2c(F)cc(-c3nc(Nc4ccc(C=C5CCN(CC(F)F)CC5)cn4)ncc3F)cc2n1C(C)C [Example 69]	1000 to 10000	< 100	100 to 500	100 to 500	< 100	< 100	–	–	–	–	–	–	–
COCCCN1CCC([C@@H](C)c2ccc(Nc3ncc(F)c(-c4cc(F)c5nc(C)n(C(C)C)c5c4)n3)nc2)CC1 [Example 81]	1000 to 10000	< 100	100 to 500	100 to 500	< 100	< 100	–	–	–	–	–	–	–
CC[C@@H](c1ccc(Nc2ncc(F)c(-c3cc(F)c4nc(C)n(C(C)C)c4c3)n2)nc1)N1CCNCC1 [Example 4]	1000 to 10000	< 100	10000 to 100000	1000 to 10000	500 to 1000	1000 to 10000	–	–	–	–	–	–	–
CCC(c1ccc(Nc2ncc(F)c(-c3cc(F)c4nc(C)n(C(C)C)c4c3)n2)nc1)N1CCN(CC)CC1 (single isomer, unassigned) [Example 2, (R or S)—N-(5-(1-(4-ethylpiperazin-1-yl)propyl)pyridin-2-yl)-5-fluoro-4-(4-fluoro-1-isopropyl-2-methyl-1H-benzo[d]imidazol-6-yl) pyrimidin-2-amine]	1000 to 10000	< 100	10000 to 100000	1000 to 10000	100 to 500	1000 to 10000	–	–	–	–	–	–	–
Cc1nc2c(F)cc(-c3nc(Nc4ccc(C(O)C5CCNCC5)cn4)ncc3F)cc2n1C(C)C (stereo not drawn) [Example 42, (6-((5-Fluoro-4-(4-fluoro-1-isopropyl-2-methyl-1H-benzo[d]imidazol-6-yl)pyrimidin-2-yl)amino)pyridin-3-yl)(piperidin-4-yl) methanol hydrochloride]	–	–	–	–	–	–	–	100 to 500	100 to 500	100 to 500	100 to 500	100 to 500	< 100
Cc1nc2c(F)cc(-c3nc(Nc4ccc([C@H](O)C5CCN(C)CC5)cn4)ncc3F)cc2n1C(C)C [Example 49]	100 to 500	< 100	100 to 500	100 to 500	< 100	100 to 500	–	–	–	–	–	–	–
